Source: article PMC12392461, “Beyond Estrogenicity: A Comparative Assessment of Bisphenol A and Its Alternatives in In Vitro Assays Questions Safety of Replacements” (Environmental Science & Technology, 2025)
Entries after “also recorded” stand apart in the source; their conditions may differ. Read-outs that look alike come from different tables or passages of the source.

What was measured:
[1] = tested on: ERα; settings: cited from earlier work
[2] = tested on: ERα; assay: Literature ERα reporter gene assays (comparison); type: cell-based; settings: for EC10, approx.: in M (unit assumed)
Description: S5.4: Comparison with literature data for ERα reporter gene assays
To improve data comparability with our own results we converted reported EC₅₀ to EC₁₀ by dividing by 9, which is the ratio for log-logistic concentration-response curves with a hillslope of 1 (Figure S9a). Additionally, REPBPA values were calculated to enable a more consistent evaluation. Methodological differences between studies must be considered, as Reiniger et al.24 used the YES assay, while Goksøyr et al.25 applied ERα from fish (Figure S9b).
Cyan symbols highlight the ER-UAS-bla GripTite (this study and Tox21GenBLA).
(1 picture or pasted object on this page, not shown here)

[3] = cited from earlier work
[4] = tested on: neuronal stem cells; settings: ref Liang et al.; cited from earlier work
[5] = tested on: Tox21 assays; settings: cited from earlier work
[6] = tested on: Tox21 assays; assay: Re-evaluated Tox21 data (Adamovsky et al.), REPBPA and SRbaseline; settings: for SRbaseline: Specificity Ratio;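 as to all read-outs here: published Tox21 results reanalysed with a revised model predicting baseline toxicity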
Description: We also reanalyzed the Tox21 data of Adamovsky et al. with the updated baseline toxicity prediction model (Table S2).

[7] = tested on: PPARγ; set-up: method as in Crosthwait et al. 2025; Sun et al. 2025; settings: ref Crosthwait et al. 2025; Sun et al. 2025; cited from earlier work
[8] = tested on: MCF-7 cells; set-up: method as in Singh et al. 2024; settings: ref Singh et al. 2024; cited from earlier work
[9] = set-up: method as in Soto et al.; settings: ref Soto et al.; cited from earlier work
[10] = Stability in PBS (pH 7.4, 37 °C, 48 h)
Description: We tested the stability of all BPA alternatives and BPA in 0.1mM PBS (pH 7.4) for 48h at 37° C except for TMCD prior to the bioassay experiments. The experiment was performed as follows: 500 µL of a 2 mg/L solution of the chemical in PBS was aliquoted into 3 HPLC vials (n=3) and incubated for 48 h at 37 °C. The 2 mg/L solution was prepared by diluting the respective 10 g/L stock solution in a 10 mL glass crimp vial with an aluminum cap. For HPLC analysis, 500 µL acetonitrile was added prior to injection.
We have not tested stability of TMCD in aqueous media because we lacked a suitable […]
Figure S2: Detection of Bisphenol alternatives after 48 h incubation in 0.1mM PBS pH 7.4. Each data point represents the mean percentage with error bars indicating standard error of mean (SEM) of n=3 replicates.
S2: Cell culture and bioassays
S2.1: Cell Culturing Conditions
All suppliers and sources are given in detail in SI-Excel S3. The bioassay media for the different assays were prepared as follows: Assay medium for ER alpha-UAS-bla GripTite (ERα) and PPAR gamma-UAS-bla 293H (PPARγ) was prepared with 98% Opti-MEM, supplemented with 2% charcoal-stripped FBS, and 100 U/mL penicillin-streptomycin. MitoOxTox and AhR assay medium was comprised of 90% DMEM with GlutaMAX, supplemented with 10% FBS, and 100 U/mL penicillin-streptomycin. Neurotoxicity assay medium consisted of the neurobasal […]

[11] = Tox21BLA, ref Adamovsky et al. 2024
[12] = Tox21Luc, ref Adamovsky et al. 2024

With `CC(C)(c1ccc(O)cc1)c1ccc(O)cc1` [BPA, 4,4'-(Propane-2,2-diyl)diphenol, reference compound] as the compound, how does the EC50 ([1]; estrogen receptor from Atlantic cod (Gadus morhua), ref Goksøyr et al 2024) read?
Its EC50 is 1900 nM.

And the EC50 ([1]; ref Kojima et al 2019)?
Its EC50 is 330 nM.

What about the EC50 ([1]; ref Pelch et al 2019) of the same compound?
Its EC50 is 1200 nM.

And the Efficacy % ([1]; ref Pelch et al 2019)?
Its Efficacy % is 110.30%.

And the EC50 ([1]; ref Reiniger et Oehlmann 2024)?
Its EC50 is 2260 nM.

And the Efficacy % ([1]; ref Reiniger et Oehlmann 2024)?
Its Efficacy % is 9.42E+01%.

And the “EC10, approx.” value ([2]; Atlantic cod estrogen receptor, approximated from literature EC50, ref Goksøyr et al 2024)?
The value was about 2.11E-07.

And the REPBPA ([2]; Atlantic cod estrogen receptor, ref Goksøyr et al 2024)?
Its REPBPA is 1.00E+00.

What about the “EC10, approx.” value ([2]; approximated from literature EC50, ref Pelch et al 2019) of the same compound?
The value was about 1.33E-07.

What about the “EC10, approx.” value ([2]; approximated from literature EC50, ref Reiniger et Oehlmann 2024) of the same compound?
Its value is about 2.51E-07.

And the “EC10, approx.” value ([2]; approximated from literature values, ref Kojima et al 2019)?
Its value is about 3.65E-08.

What about the REPBPA ([2]; relative estrogenic potency vs BPA, ref Kojima et al 2019) of the same compound?
Its REPBPA is 1.00E+00.

What about the REPBPA ([2]; relative estrogenic potency vs BPA, ref Pelch et al 2019) of the same compound?
Its REPBPA is 1.00E+00.

What about the REPBPA ([2]; relative estrogenic potency vs BPA, ref Reiniger et Oehlmann 2024) of the same compound?
Its REPBPA is 1.00E+00.

What about the “log (KBSAw /(Lw/Lprotein)) (neutral species)” value ([3]; exp. + log(1.36 kg/L), ref Endo and Goss 2011) of the same compound?
The value was 3.57.

And the “predicted or literature experimental log Kow” value ([3]; experimental, ref Hansch, 1995)?
Its value is 3.32.

What about the “log D lipw” value ([3]; pH 7.4, ref Kwon et al. 2006) of the same compound?
The value was 3.65.

What about the “log (DBSAw /(Lw/Lprotein) (pH7.4))” value ([3]; ref Endo and Goss 2011) of the same compound?
Its value is 3.01.

What about the “log (KBSAw /(Lw/kgprotein)) (neutral species)” value ([3]; ref Endo and Goss 2011) of the same compound?
Its value is 3.44.

And the “log (Dlipw/(Lwater/kglipid) or (Lwater/Llipid)) (pH 7.4)” value ([3]; ref Kwon et al. 2006)?
Its value is 3.65.

And the “concentration with significant reduction in average neurite length” value [4]?
The value was 1 nM.

What about the EC10 ([5]; ATG_NRF2_ARE_CIS_up, re-evaluated Tox21 data, ref Adamovsky et al 2024) of the same compound?
Its EC10 is 7.56e-06 M.

What about the EC10 ([5]; TOX21_AR_LUC_MDAKB2_Antagonist_0,5nM_R1881, re-evaluated Tox21 data, ref Adamovsky et al 2024) of the same compound?
Its EC10 is 2.42e-06 M.

And the EC10 ([5]; TOX21_CAR_Agonist, re-evaluated Tox21 data, ref Adamovsky et al 2024)?
The EC10 was 1.37e-06 M.

What about the EC10 ([5]; TOX21_CAR_Antagonist, re-evaluated Tox21 data, ref Adamovsky et al 2024) of the same compound?
The EC10 was 5.45e-07 M.

What about the EC10 ([5]; TOX21_PPARg_BLA_antagonist_ratio, re-evaluated Tox21 data, ref Adamovsky et al 2024) of the same compound?
The EC10 was 7.65e-06 M.

And the EC10 [5, 11]?
Its EC10 is 5.92E-07.

And the EC10 [5, 12]?
The EC10 was 5.63E-08.

And the REPBPA ([6]; ATG_NRF2_ARE_CIS_up, Relative Effect Potency)?
The REPBPA was 1.00.

What about the SRbaseline ([6]; ATG_NRF2_ARE_CIS_up) of the same compound?
The SRbaseline was 10.51.

What about the REPBPA ([6]; TOX21_AR_LUC_MDAKB2_Antagonist_0,5nM_R1881, Relative Effect Potency) of the same compound?
Its REPBPA is 1.00.

What about the SRbaseline ([6]; TOX21_AR_LUC_MDAKB2_Antagonist_0,5nM_R1881) of the same compound?
The SRbaseline was 32.80.

And the REPBPA ([6]; TOX21_CAR_Agonist, Relative Effect Potency)?
The REPBPA was 1.00.

And the SRbaseline ([6]; TOX21_CAR_Agonist)?
Its SRbaseline is 57.94.

What about the REPBPA ([6]; TOX21_CAR_Antagonist, Relative Effect Potency) of the same compound?
The REPBPA was 1.00.

What about the SRbaseline ([6]; TOX21_CAR_Antagonist) of the same compound?
Its SRbaseline is 145.9.

And the SRbaseline ([6]; TOX21_PPARg_BLA_antagonist_ratio)?
Its SRbaseline is 10.39.

What about the REPBPA [6, 11] of the same compound?
The REPBPA was 1.00E+00.

What about the REPBPA [6, 12] of the same compound?
The REPBPA was 1.00E+00.

What about the “PPARγ transactivation reported in the literature” value [7] of the same compound?
The value was “No agonism was detected”.

For `Cc1cc(Cc2cc(C)c(O)c(C)c2)cc(C)c1O` [TMBPF, Bis(3,5-dimethyl-4-hydroxyphenyl)methane], which “estrogenicity in MCF-7 cells” value [8] is on record?
Its value is “inactive in estrogenicity assays using MCF-7 cells”.

And the estrogenicity in vivo [9]?
Its estrogenicity in vivo is “nonestrogenic in vivo”.

With `CC(C)(c1ccc(OCC2CO2)cc1)c1ccc(OCC2CO2)cc1` (stereo not shown) [BADGE, Bisphenol A diglycidyl ether] as the compound, how does the “stability in phosphate-buffered saline” value [10] read?
The value was “unstable in aqueous solution; also recorded: lower parent concentration and potential contributions from hydrolysis products”.
